These results are taken from the METLIN SMRT retention time set (Domingo-Almenara et al. 2019).

The structures appear in SMILES notation.

This data set is described as follows: gradient 5% acetonitrile 3 min, to 50% in 2 min, to 85% in 15 min, held 3 min, 100 µL/min. The note with it: column: Zorbax Extend-C18 2.1 x 50 mm; eluents: water / acetonitrile, 0.1% formic acid. The procedure, abridged: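 Using water and acetonitrile that each contained 0.1% formic acid, mixtures of ~100 pure standards were separated at 100 μL/min on a Zorbax Extend-C18 column (2.1 × 50 mm, 1.8 μm). The HPLC fed a quadrupole time-of-flight mass spectrometer working in positive and negative ionization mode, with dead and dwell volumes of 40 μL and 900 μL. Data were acquired over 3 months. Retention time was read from computationally picked adduct peaks after manual inspection of each.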
`COC(=O)c1c(C)[nH]c(C(=O)N2CCCC(C(=O)NCc3ccccc3C)C2)c1C` (stereo not drawn) registered an RP-LC retention time of 776 s.

`Cc1cc(C)c(S(=O)(=O)N2CCCC2c2nc(-c3cccc(Cl)c3)no2)c(C)c1` (stereo not drawn): the RP-LC retention time is 1350 s. To `CN(C(=O)Cc1ccc(Cl)c(Cl)c1)C(CN1CCCC1)c1cccc(OCC(=O)O)c1` (stereo not drawn) belongs 770 s. As for `O=C(c1cccs1)N1CCC(n2c(-c3ccoc3)nc3cccnc32)C1` (stereo not drawn), the RP-LC retention time worked out at 685 s. `Cc1ccc(NC(=O)Cn2nc3n(c2=O)CCCCC3)c(C)c1` yielded an RP-LC retention time of 703 s. The compound `COc1ccc(COc2cc3oc(=O)c4cc(C(C)O)ccc4c3cc2OC)cc1` (stereo not drawn) gave an RP-LC retention time of 942 s. `COc1ccc(-c2noc(CN3N=NC4C(=O)N(c5ccc6c(c5)CCC6)C(=O)C43)n2)cc1OC` (stereo not drawn) yielded an RP-LC retention time of 949 s.

Compound `Cn1cc(C=C2C(=O)Nc3cccnc32)c2ccccc21` gave an RP-LC retention time of 750 s. To `COc1ccc2c(c1)C1(CCN(C(=O)c3cccc(Br)c3)C1)C(=O)N2` (stereo not drawn) belongs 754 s. `O=C(Nc1ccccc1F)N1CCC2(CCC2N2CCOCC2)CC1` (stereo not drawn) gave an RP-LC retention time of 554 s. For `O=C(CSc1ccc(-c2cccc([N+](=O)[O-])c2)nn1)c1ccc(F)cc1` the value was 944 s; for `CCOc1cccc(CN2C[C@@H]3C(=O)N(CCOC)C(=O)[C@@H]3C2)c1`, 578 s. Compound `COc1ccc(-c2noc(-c3ncn4c3COC(c3ccc(F)cc3)C4)n2)c(OC)c1` (stereo not drawn) had an RP-LC retention time of 954 s. For `O=C(NC1CCCCCC1)C1CCCN(c2nccnc2Sc2ccccc2)C1` (stereo not drawn) the value was 1170 s. As for `COc1cc(OC)cc(-c2nc(-c3cn(-c4ccc(C)cc4)nn3)no2)c1`, the RP-LC retention time worked out at 1140 s.

For `Fc1ccc(C(c2nnc(-c3ccccc3)o2)N2CCN(c3ccccn3)CC2)c(Cl)c1` (stereo not drawn), the RP-LC retention time worked out at 978 s.

Take `Nc1ccc2c(c1)CN1C(=O)c3ccccc3C1=N2`: the RP-LC retention time worked out at 639 s. As for `O=C(NCCC1=CCCCC1)C1CCN(c2ncccc2-c2nc(-c3ccc(Cl)cc3)no2)CC1`, the RP-LC retention time worked out at 1330 s. To `CCN1CCn2cc(C(=O)NCc3cccc(Br)c3)nc2C1` belongs 600 s; to `CC(C)c1cc(N2CCN(C(=O)C3CC3)CC2)nc2nncn12`, 586 s; to `CC(=O)N1CCC(C(=O)N2CCCCCCN(C)C(=O)[C@@H]3CCC[C@@H]32)CC1`, 658 s. As to `CCCN(C(=O)Cc1ccc(OC)cc1)c1nc(-c2ccccc2)cs1`, the RP-LC retention time turned out to be 1420 s. `CCc1nnc(-c2ccc(NS(=O)(=O)c3cccs3)cc2)o1` came in with an RP-LC retention time of 772 s. Regarding `O=C(NCCc1ccccc1)c1nnc(-c2ccc(S(=O)(=O)N3CCCC3)cc2)o1`, the RP-LC retention time is 916 s.

Consider `C=CCN1CCN(c2nc3cc(C(=O)OC)ccc3c(=O)n2-c2ccc(F)c(Cl)c2)CC1`, for which the RP-LC retention time was determined as 699 s. Compound `COc1cccc(NC(=O)Cn2nc(N3CCSCC3)c3ccccc3c2=O)c1` yielded an RP-LC retention time of 908 s. `COCCN1CCn2cc(S(=O)(=O)NCc3ccc(F)cc3Cl)cc2C1=O` returned an RP-LC retention time of 735 s. `Cc1csc(-c2cc(S(=O)(=O)NCCCN3CCOCC3)cn2CC(=O)N2CCCCC2)n1` came in with an RP-LC retention time of 667 s.

`CC(C)(C)c1csc(NC(=O)c2ccc3c(c2)OCCO3)n1`: the RP-LC retention time was found to be 976 s. With `CCN1C(=O)c2cc(S(=O)(=O)Nc3ccc(C)cc3F)ccc2Oc2cccnc21`, the RP-LC retention time is 1030 s.

With `COc1cccc(NC(=O)Cn2nc3c(Oc4cccc(Cl)c4)nccn3c2=O)c1`, the RP-LC retention time was 858 s.

In turn, `O=C(c1noc2ccc(S(=O)(=O)N3CCN(c4ccccn4)CC3)cc12)N1CCCCC1` yielded an RP-LC retention time of 703 s. Compound `CC(=O)N1c2ccc(S(=O)(=O)N3CCCCC3)cc2CC1C(=O)N1CCN(c2ccccn2)CC1` (stereo not drawn) returned an RP-LC retention time of 645 s.

For the compound `CCOC(=O)c1ccccc1NC(=O)N1CCc2nc[nH]c2C1`, the RP-LC retention time came out at 626 s.

Consider `Cc1ccc(Cc2nc(-c3cccc(-c4ccn[nH]4)c3)no2)cc1`, for which the RP-LC retention time is 999 s. To `COc1ccc(-c2ncc3c(n2)CCN(C(=O)c2ccc(C(F)(F)F)cc2)C3)cc1` belongs 1010 s; to `CCCCN1CC(c2nc3ccccc3n2CC(=O)N(C)c2ccccc2)CC1=O` (stereo not drawn), 700 s; to `CC(C)C(NC(=O)c1ccco1)C(=O)N1CCC(c2noc(-c3ccccc3)n2)CC1` (stereo not drawn), 920 s.

As for `CCOc1ccc(CN(CCOC)Cc2cc(=O)n3cc(Cl)ccc3n2)cc1`, the RP-LC retention time was determined as 677 s. `CC(C)NC(=O)C1CCCN(c2nc3ncn(CC(=O)Nc4cccc(C(C)C)c4)c(=O)c3s2)C1` (stereo not drawn) yielded an RP-LC retention time of 791 s. In turn, `Cc1ccc2c(c1)N(CCCC(=O)NCCCN1CC(C)CC(C)C1)C(=O)CO2` (stereo not drawn) gave an RP-LC retention time of 674 s. Turning to `CCn1ccc(-c2nc(-c3ccc4oc(-c5ccccc5)nc4c3)no2)n1`, the RP-LC retention time is 1130 s. `COc1cccc(CN2N=C(C(=O)N3CCC(C)CC3)S(=O)(=O)c3ccc(C)cc32)c1` gave an RP-LC retention time of 674 s. The compound `CC(C)NC(=O)N1CCCN(S(C)(=O)=O)CC1` gave an RP-LC retention time of 598 s.

`COc1cc(OC)c(NC(=O)N2CCN(c3ccc(=O)n(-c4ccc(C)cc4)n3)CC2)cc1Cl` returned an RP-LC retention time of 877 s. `c1ccc(-c2ccc(CNCCc3c[nH]c4ccccc34)o2)cc1`: the RP-LC retention time was 735 s. `O=C(Cn1nc(N2CCCCCC2)c2ccccc2c1=O)Nc1ccc(F)c(F)c1` gave an RP-LC retention time of 1150 s. As to `CC(C)n1c(=O)oc2cc(-c3noc(-c4ccccc4Br)n3)ccc21`, the RP-LC retention time was determined as 1220 s. The compound `COc1ccc(CN2C=C(C(=O)OCc3noc(-c4ccccc4)n3)C(C)=NS2(=O)=O)cc1` registered an RP-LC retention time of 1100 s.

In turn, `CNC(=O)N1CCCC(c2cccc(C(=O)NCc3cccs3)c2)C1` (stereo not drawn) returned an RP-LC retention time of 719 s. In the case of `CCc1cccc(NC(=O)C2CCCN(S(=O)(=O)c3cc(-c4noc(CC)n4)cs3)C2)c1` (stereo not drawn), the RP-LC retention time came out at 1090 s.

`CCn1cc(C)c(C(=O)O)c1CC(=O)N(C)c1cccc(Cl)c1` came in with an RP-LC retention time of 792 s.

`O=S(=O)(Cc1ccc(F)cc1)NCCc1csc2nc(-c3cccs3)nn12`: the RP-LC retention time came out at 822 s.

`CCn1nccc1-c1cccc(-c2noc(-c3c(F)cccc3F)n2)c1` returned an RP-LC retention time of 1270 s. As for `O=C(c1cccs1)N1CCC2(CC1)NC(=O)N(Cc1ccccc1Cl)C2=O`, the RP-LC retention time amounted to 821 s. To `O=C(Cn1cccc(-c2nc(-c3ccc(F)cc3)no2)c1=O)N1CCCC1` belongs 727 s; to `COc1cccc(-c2ccnc3nc(-c4ccccc4)nn23)c1`, 919 s; to `Cn1c(=O)c(N2CCN(C(=O)c3cc(F)cc(F)c3)CC2)nc2cccnc21`, 860 s.
